{
  "source": "paper PMC11845477",
  "about": "“Exploring the principles behind antibiotics with limited resistance” (Nature Communications, 2025)",
  "key": {"[1]": {"test_system": "E. coli ATCC 25922 (SEN) and E. coli NCTC13846 (MDR)", "test": "Adaptive laboratory evolution (ALE), relative MIC of evolved lines", "assay_type": "cell-based, Escherichia coli", "from_the_text": "Using the same set of bacterial strains, we initiated adaptive laboratory evolution with the aim to maximize the level of antibiotic resistance in the populations achieved during a longer, but fixed time period.\nAn established protocol for adaptive laboratory evolution[46],[73] was followed to propagate populations with the highest resistance levels. Starting with an antibiotic concentration that caused approximately 50% growth inhibition, ten parallel populations for each antibiotic-ancestor strain combination were grown for 72 hours at 37 °C with continuous shaking (300 RPM). MHB broth medium was used unless stated otherwise. After each incubation, 20 µl of each culture was transferred to four new wells containing fresh medium with increasing antibiotic concentrations (0.5×, 1×, 1.5×, and 2.5× the previous concentration) in a chessboard layout to monitor potential cross-contamination. Growth was monitored by measuring OD600 using a Biotek Synergy 2 microplate reader, and only populations grown in the highest drug concentration with an OD600 > 0.2 were transferred further.\nA robotic liquid handling system was used to automatically prepare a 11 to 16-step serial dilution in 384-well microtiter plates (Greiner). A final concentration of 5 × 10^5 bacterial cells per mL were inoculated into each well containing 60 µL MHB medium. Bacterial cultures were incubated at 37 °C with continuous shaking (Infors shaker, 900 rpm with 3 mm throw) for 18 hours (2 replicates from each). Cell growth was monitored by measuring the optical density (OD600 values, using Biotek Synergy microplate reader). MIC was defined as the antibiotic concentration of complete growth inhibition (i.e., OD600 < 0.05). Relative MIC was calculated as follows:1 relativeMIC=MICevolved/MICancestor […]\nSupplementary Figure 4. Resistance levels following adaptive laboratory evolution across bacterial strains. The level of resistance was measured as the fold change in relative MIC between evolved and ancestral strains after ~60 days of adaptive laboratory evolution. Data are grouped by bacterial strain (A. baumannii (AB), E. coli (EC), K. pneumoniae (KP), and P. aeruginosa (PA)) and categorized as either multidrug-resistant (MDR) or sensitive (SEN). Each data point represents a laboratory evolved line, and boxplots show the median, first and third quartiles, with whiskers indicating the 5th and 95th percentiles.\nStatistical analysis was performed using two-sided Dunn’s post-hoc test with Benjamini-Hochberg correction for multiple comparisons (****/ ***/ **/ * indicates p < 0.0001/ 0.001/ 0.01/ 0.05). For detailed information on antibiotic and bacterial species, see Supplementary Table 1. For mode of action groups, refer to Table 1. Source data are provided as a Source Data file.\n(1 picture or pasted object on this page, not shown here)"}, "[2]": {"test_system": "P. aeruginosa ATCC BAA-3107 (SEN) and P. aeruginosa LESB58 (MDR)", "test": "microbe, parasite or virus in culture", "assay_type": "cell-based, Pseudomonas aeruginosa", "conditions": "across three biological replicates", "procedure": "This study focused on multiple bacterial strains, as follows. For the FoR and ALE experiments, 2 strains per species were chosen: E. coli ATCC 25922, K. pneumoniae ATCC 10031, A. baumannii ATCC 17978, and P. aeruginosa ATCC BAA-3107 as sensitive (SEN) strains, and E. coli NCTC13846, K. pneumoniae ATCC 700603, A. baumannii ATCC BAA-1605 and P. aeruginosa LESB58 as multi-drug resistant (MDR) strains. Functional metagenomic screens were performed with E. coli ATCC 25922 and K. pneumoniae ATCC 10031 strains. To determine the dose-kill properties of the different antibiotics, an E. coli strain (ATCC 25922) expressing a yellow fluorescent protein (pZS2R, YFP, CHL^R) and a red fluorescent protein (pZS2R, mCherry, CHL^R) was used.\nUnless otherwise indicated, cation-adjusted Mueller-Hinton Broth 2 (MHB, Millipore) medium was used throughout the study, except for SCH79797 (SCH).\nA robotic liquid handling system was used to automatically prepare a 11 to 16-step serial dilution in 384-well microtiter plates (Greiner). A final concentration of 5 × 10^5 bacterial cells per mL were inoculated into each well containing 60 µL MHB medium. Bacterial cultures were incubated at 37 °C with continuous shaking (Infors shaker, 900 rpm with 3 mm throw) for 18 hours (2 replicates from each). Cell growth was monitored by measuring the optical density (OD600 values, using Biotek Synergy microplate reader). MIC was defined as the antibiotic concentration of complete growth inhibition (i.e., OD600 < 0.05). Relative MIC was calculated as follows:1 relativeMIC=MICevolved/MICancestor"}, "[3]": {"conditions": "EC-SEN (Escherichia coli ATCC 25922), evolved line 3"}, "[4]": {"conditions": "EC-SEN (Escherichia coli ATCC 25922), evolved line 4"}, "[5]": {"conditions": "EC-SEN (Escherichia coli ATCC 25922), evolved line 5"}, "[6]": {"conditions": "EC-SEN (Escherichia coli ATCC 25922), evolved line 7"}, "[7]": {"conditions": "EC-SEN (Escherichia coli ATCC 25922), evolved line 10"}},
  "data": [
    {"smiles": "CC(C)c1ccc(Cn2ccc3c4c(N)nc(NC5CC5)nc4ccc32)cc1", "note": "[SCH79797]", "values": [
      {"measurement": "Relative MIC", "setting": "[1]; ALE, Escherichia coli ATCC 25922 (EC-SEN), evolved line 1", "value": 4},
      {"measurement": "Relative MIC", "setting": "[1]; ALE, Escherichia coli ATCC 25922 (EC-SEN), evolved line 2", "value": 4},
      {"measurement": "Relative MIC", "setting": "[1]; ALE, Escherichia coli ATCC 25922 (EC-SEN), evolved line 3", "value": 4},
      {"measurement": "Relative MIC", "setting": "[1]; ALE, Escherichia coli ATCC 25922 (EC-SEN), evolved line 4", "value": 4},
      {"measurement": "Relative MIC", "setting": "[1]; ALE, Escherichia coli ATCC 25922 (EC-SEN), evolved line 5", "value": 4},
      {"measurement": "Relative MIC", "setting": "[1]; ALE, Escherichia coli ATCC 25922 (EC-SEN), evolved line 7", "value": 4},
      {"measurement": "Relative MIC", "setting": "[1]; ALE, Escherichia coli ATCC 25922 (EC-SEN), evolved line 8", "value": 2},
      {"measurement": "Relative MIC", "setting": "[1]; ALE, Escherichia coli ATCC 25922 (EC-SEN), evolved line 9", "value": 2},
      {"measurement": "Relative MIC", "setting": "[1]; ALE, Escherichia coli ATCC 25922 (EC-SEN), evolved line 10", "value": 4},
      {"measurement": "MIC of evolved line", "setting": "[1]; EC-SEN (E. coli ATCC 25922), evolved line 1 of the given antibiotic", "value": 16, "unit": "mg/L"},
      {"measurement": "Relative MIC", "setting": "[1]; EC-SEN (E. coli ATCC 25922), evolved line 1 vs ancestor", "value": 4},
      {"measurement": "MIC of evolved line", "setting": "[1]; EC-SEN (E. coli ATCC 25922), evolved line 2 of the given antibiotic", "value": 16, "unit": "mg/L"},
      {"measurement": "Relative MIC", "setting": "[1]; EC-SEN (E. coli ATCC 25922), evolved line 2 vs ancestor", "value": 4},
      {"measurement": "MIC of evolved line", "setting": "[1]; EC-SEN (E. coli ATCC 25922), evolved line 3 of the given antibiotic", "value": 16, "unit": "mg/L"},
      {"measurement": "Relative MIC", "setting": "[1]; EC-SEN (E. coli ATCC 25922), evolved line 3 vs ancestor", "value": 4},
      {"measurement": "MIC of evolved line", "setting": "[1]; EC-SEN (E. coli ATCC 25922), evolved line 4 of the given antibiotic", "value": 16, "unit": "mg/L"},
      {"measurement": "Relative MIC", "setting": "[1]; EC-SEN (E. coli ATCC 25922), evolved line 4 vs ancestor", "value": 4},
      {"measurement": "MIC of evolved line", "setting": "[1]; EC-SEN (E. coli ATCC 25922), evolved line 5 of the given antibiotic", "value": 16, "unit": "mg/L"},
      {"measurement": "Relative MIC", "setting": "[1]; EC-SEN (E. coli ATCC 25922), evolved line 5 vs ancestor", "value": 4},
      {"measurement": "MIC of evolved line", "setting": "[1]; EC-SEN (E. coli ATCC 25922), evolved line 7 of the given antibiotic", "value": 16, "unit": "mg/L"},
      {"measurement": "Relative MIC", "setting": "[1]; EC-SEN (E. coli ATCC 25922), evolved line 7 vs ancestor", "value": 4},
      {"measurement": "MIC of evolved line", "setting": "[1]; EC-SEN (E. coli ATCC 25922), evolved line 8 of the given antibiotic", "value": 8, "unit": "mg/L"},
      {"measurement": "Relative MIC", "setting": "[1]; EC-SEN (E. coli ATCC 25922), evolved line 8 vs ancestor", "value": 2},
      {"measurement": "MIC of evolved line", "setting": "[1]; EC-SEN (E. coli ATCC 25922), evolved line 9 of the given antibiotic", "value": 8, "unit": "mg/L"},
      {"measurement": "Relative MIC", "setting": "[1]; EC-SEN (E. coli ATCC 25922), evolved line 9 vs ancestor", "value": 2},
      {"measurement": "MIC of evolved line", "setting": "[1]; EC-SEN (E. coli ATCC 25922), evolved line 10 of the given antibiotic", "value": 16, "unit": "mg/L"},
      {"measurement": "Relative MIC", "setting": "[1]; EC-SEN (E. coli ATCC 25922), evolved line 10 vs ancestor", "value": 4},
      {"measurement": "Relative MIC", "setting": "[1]; [3]", "value": 4},
      {"measurement": "Relative MIC (log10)", "setting": "[1]; [3]", "value": 0.6021, "unit": "log10"},
      {"measurement": "Relative MIC", "setting": "[1]; [4]", "value": 4},
      {"measurement": "Relative MIC (log10)", "setting": "[1]; [4]", "value": 0.6021, "unit": "log10"},
      {"measurement": "Relative MIC", "setting": "[1]; [5]", "value": 4},
      {"measurement": "Relative MIC (log10)", "setting": "[1]; [5]", "value": 0.6021, "unit": "log10"},
      {"measurement": "Relative MIC", "setting": "[1]; [6]", "value": 4},
      {"measurement": "Relative MIC (log10)", "setting": "[1]; [6]", "value": 0.6021, "unit": "log10"},
      {"measurement": "Relative MIC", "setting": "[1]; EC-SEN (Escherichia coli ATCC 25922), evolved line 8", "value": 2},
      {"measurement": "Relative MIC", "setting": "[1]; EC-SEN (Escherichia coli ATCC 25922), evolved line 9", "value": 2},
      {"measurement": "Relative MIC", "setting": "[1]; [7]", "value": 4},
      {"measurement": "Relative MIC (log10)", "setting": "[1]; [7]", "value": 0.6021, "unit": "log10"},
      {"measurement": "Relative MIC", "setting": "[1]; EC-SEN, Escherichia coli ATCC 25922, evolved line 1", "value": 4},
      {"measurement": "Relative MIC", "setting": "[1]; EC-SEN, Escherichia coli ATCC 25922, evolved line 2", "value": 4},
      {"measurement": "Relative MIC", "setting": "[1]; Escherichia coli ATCC 25922 (EC-SEN), evolved line 1", "value": 4},
      {"measurement": "Relative MIC", "setting": "[1]; Escherichia coli ATCC 25922 (EC-SEN), evolved line 2", "value": 4},
      {"measurement": "Relative MIC", "setting": "[1]; Escherichia coli ATCC 25922 (EC-SEN), evolved line 3", "value": 4},
      {"measurement": "Relative MIC", "setting": "[1]; Escherichia coli ATCC 25922 (EC-SEN), evolved line 4", "value": 4},
      {"measurement": "Relative MIC", "setting": "[1]; Escherichia coli ATCC 25922 (EC-SEN), evolved line 5", "value": 4},
      {"measurement": "Relative MIC", "setting": "[1]; Escherichia coli ATCC 25922 (EC-SEN), evolved line 7", "value": 4},
      {"measurement": "Relative MIC", "setting": "[1]; Escherichia coli ATCC 25922 (EC-SEN), evolved line 8", "value": 2},
      {"measurement": "Relative MIC", "setting": "[1]; Escherichia coli ATCC 25922 (EC-SEN), evolved line 9", "value": 2},
      {"measurement": "Relative MIC", "setting": "[1]; Escherichia coli ATCC 25922 (EC-SEN), evolved line 10", "value": 4},
      {"measurement": "MIC", "setting": "[2]; Pseudomonas aeruginosa ATCC BAA-3107 (PA-SEN)", "value": 32, "unit": "mg/L"},
      {"measurement": "MIC", "setting": "[2]; Pseudomonas aeruginosa LESB 58 (PA-MDR)", "value": ">32", "unit": "mg/L"}
    ]}
  ]
}
